The text below walks through data of US20110269759A1, “PYRIMIDINE COMPOUNDS AS DELTA OPIOID RECEPTOR MODULATORS” (priority 2009, published 2011).

Like-named read-outs stand apart in the source and are kept apart here.

Experiment [1] deals with T1, Delta Opioid Receptor (Rattus norvegicus, UniProt P33533).
T1 construct: the forebrains were homogenized in Tris buffer in a Teflon®-glass homogenizer; from tissue; host or cells: forebrain of male Wistar rats, particulate membrane preparation
Nature of the experiment: Rat brain delta opioid receptor binding assay ([3H]DPDPE or [3H]naltrindole).

Another experiment addresses T2, Mu Opioid Receptor (Rattus norvegicus, UniProt P33535).
T2 construct: the forebrains were homogenized in Tris buffer in a Teflon®-glass homogenizer; from tissue; host or cells: forebrain of male Wistar rats, particulate membrane preparation
The experiment can be described thus: Rat brain mu opioid receptor binding assay ([3H]DAMGO).

For experiment [2], the target named is T3, δ-opioid receptor (Mus musculus, UniProt P32300). Nature of the experiment: [35S]GTPγS δ-opioid receptor functional assay (EC50, relative efficacy, % inhibition). Type of experiment: biochemical. Also on record: NG108-15 cell membranes were purchased from Applied Cell Sciences (Rockville, Md.). The note with it: for inhibition at 10 µM: read-out: GTPγS δ-opioid receptor % Inh @10 μM. A general note: GTPγS resists hydrolysis and so accumulates on activated G proteins.

Experiment [3] has as its target T4, Delta Opioid Receptor (Mus musculus, UniProt P32300).
T4 construct: NG108-15 cell membranes were purchased from Applied Cell Sciences (Rockville, Md.); host or cells: NG108-15 cell membranes (purchased)
The experiment can be described thus: NG108-15, 24-well delta opioid receptor binding assay ([3H]naltrindole).

The test system of a further experiment is mice. Nature of the experiment: Mouse Graded Abdominal Irritant Test (GrAIT). Type of experiment: in vivo. The note with it: 10% Solutol, 30 min pretreatment. The procedure: Test compound or vehicle was administered s.c. or p.o. to mice. Following the pretreatment time, an i.p. injection of 0.6% of acetic acid in 0.5 mL was administered. Five min after acetic acid administration, mice were placed into clear chambers and were continuously observed for 5 min. Behavioral responses including twisting and elongation of the body that extended through the hindlimbs were counted and averaged for the group of animals over the observation period.

Experiment [4] addresses T3, δ-opioid receptor. The experiment can be described thus: [35S]GTPγS binding assay in NG108-15 cell membranes (delta opioid functional assay), 200 nM screen. It counts as biochemical. Also on record: NG108-15 cell membranes were purchased from Applied Cell Sciences (Rockville, Md.); host or cells: NG108-15 cell membranes (purchased). The following applies: 200 nM compound, relative to calculated max of SNC80 dose response.

[5] abbreviates: rat forebrain membranes, 0.25 nM [3H]naltrindole, read-out: δ-binding (Naltrindole ligand) Ki.
Setting [6] is: rat forebrain membranes, ~0.8 nM [3H]DAMGO, read-out: μ-binding Ki.
Where [7] appears, read: read-out: GTPγS δ-opioid receptor EC50.
[8] abbreviates: NG108-15 cell membranes, ~0.2 nM [3H]naltrindole, read-out: δ-binding NG108 cell membrane Ki.
[9] abbreviates: rat forebrain membranes, ~4 nM [3H]DPDPE, read-out: δ-binding (DPDPE ligand) Ki.

T2 sequence (P33535 whole entry): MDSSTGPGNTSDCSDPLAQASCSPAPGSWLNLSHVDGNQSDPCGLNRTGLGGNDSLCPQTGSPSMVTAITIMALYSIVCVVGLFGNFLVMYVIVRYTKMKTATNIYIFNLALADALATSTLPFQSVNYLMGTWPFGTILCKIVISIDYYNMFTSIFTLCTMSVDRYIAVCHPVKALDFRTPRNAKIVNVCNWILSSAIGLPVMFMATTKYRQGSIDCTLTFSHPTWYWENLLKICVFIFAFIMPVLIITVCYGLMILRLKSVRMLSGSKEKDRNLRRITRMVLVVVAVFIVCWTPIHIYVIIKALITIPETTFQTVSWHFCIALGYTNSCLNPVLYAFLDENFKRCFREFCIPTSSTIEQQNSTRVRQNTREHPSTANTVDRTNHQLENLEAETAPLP
T1 sequence (P33533 whole entry): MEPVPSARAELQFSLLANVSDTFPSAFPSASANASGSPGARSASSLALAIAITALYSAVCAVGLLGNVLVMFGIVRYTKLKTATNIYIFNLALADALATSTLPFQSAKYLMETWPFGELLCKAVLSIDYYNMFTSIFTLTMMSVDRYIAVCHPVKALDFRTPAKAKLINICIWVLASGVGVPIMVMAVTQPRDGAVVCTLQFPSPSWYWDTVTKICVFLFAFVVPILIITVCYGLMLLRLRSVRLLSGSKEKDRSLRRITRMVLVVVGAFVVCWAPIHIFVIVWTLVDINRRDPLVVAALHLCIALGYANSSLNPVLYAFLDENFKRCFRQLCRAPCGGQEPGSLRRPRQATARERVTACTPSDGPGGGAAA
T3 sequence (P32300 whole entry): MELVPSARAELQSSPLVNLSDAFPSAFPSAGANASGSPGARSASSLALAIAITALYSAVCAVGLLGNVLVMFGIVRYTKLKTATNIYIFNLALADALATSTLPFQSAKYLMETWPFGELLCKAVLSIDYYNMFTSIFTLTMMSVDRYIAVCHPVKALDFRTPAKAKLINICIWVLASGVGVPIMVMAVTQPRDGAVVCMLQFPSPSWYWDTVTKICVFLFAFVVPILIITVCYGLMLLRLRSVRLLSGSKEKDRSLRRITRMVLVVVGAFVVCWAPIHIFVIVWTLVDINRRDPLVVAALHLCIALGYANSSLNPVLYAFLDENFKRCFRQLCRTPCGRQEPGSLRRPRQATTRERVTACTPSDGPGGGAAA
T4 sequence (P32300 whole entry): as above

In general, Ki refers to a measure of affinity in units of concentration, obtained from inhibition or displacement. In the case of `CNCCNc1ccc(Oc2ccc(OC)cc2)cc1Oc1ccc(OC)cc1` [Cpd 63, N-[2,4-Bis-(4-methoxy-phenoxy)-phenyl]-N′-methyl-ethane-1,2-diamine], the Ki at Delta Opioid Receptor [1] is 23.7 nM; on Mu Opioid Receptor (read-out: μ-binding Ki) it was greater than 10000 nM. Besides, the inhibition at 10 µM on δ-opioid receptor [2] was found to be 26%.

A word on the EC50: it is the concentration needed to bring the measured effect to its halfway point. Compound `COc1ccc(Oc2cc(-c3cccnc3)ccc2NC[C@@H]2CCCN2)cc1` [Cpd 39] displayed a Ki at Delta Opioid Receptor [1] of 22.1 nM. At Delta Opioid Receptor [3], this compound registered a Ki of 1.65 nM. On Mu Opioid Receptor, the affinity corresponds to a Ki of 3110 nM. At δ-opioid receptor [2], the EC50 was found to be 111 nM, the “GTPγS δ-opioid receptor Rel Efficacy” value is reported as 0.9245 and the inhibition at 10 µM worked out at 13.4%.

Take `CCN(CC)C(=O)/C=C/c1ccc(NC[C@@H]2CCCN2)c(Oc2ccc(OC)cc2)c1` [Cpd 1, (2E)-N,N-Diethyl-3-[3-(4-methoxyphenoxy)-4-{[(2S)-pyrrolidin-2-ylmethyl]amino}phenyl]prop-2-enamide]: the inhibition constant (Ki) at Delta Opioid Receptor [1] was determined as 6.08 nM. Besides, the “# abdominal stretches (cpd)” value in the experiment on mice (30 mg/kg s.c.) was 10.9. For the same compound, the Ki on Mu Opioid Receptor was 3370 nM. At δ-opioid receptor [2], the concentration for a half-maximal effect (EC50) came to 109 nM, the “GTPγS δ-opioid receptor Rel Efficacy” value was found to be 0.8328 and the inhibition at 10 µM came to 2.26%.

With `CCN(CC)C(=O)CCc1ccc(NC[C@@H]2CCCN2)c(Oc2ccc(OC)cc2)c1` [Cpd 2, N,N-Diethyl-3-[3-(4-methoxyphenoxy)-4-{[(2S)-pyrrolidin-2-ylmethyl]amino}phenyl]propanamide], the Ki at Delta Opioid Receptor [1] (setting [5]) worked out at 26.4 nM. In addition, the inhibitory constant (Ki) on Mu Opioid Receptor (setting [6]) was greater than 100000 nM. In addition, at δ-opioid receptor [2], the “GTPγS δ-opioid receptor Rel Efficacy” value was found to be 0.8333 and the inhibition at 10 µM was determined as 22.8%. On δ-opioid receptor [2] (setting [7]), the EC50 was 39.1 nM.

In the case of `COc1ccc(Oc2ccc(NC3CCCC(N)C3)c(Oc3ccc(OC)cc3)c2)cc1` (centres unmarked) [Cpd 62], the affinity at Delta Opioid Receptor [1], expressed as Ki, was 40.9 nM. At Mu Opioid Receptor, this compound showed a Ki of 1640 nM. Further, at δ-opioid receptor [2], the EC50 is 381 nM and the inhibition at 10 µM turned out to be 1.73%.

As to `COc1ccc(Oc2cc(-c3cncc(C)c3)ccc2NC[C@@H]2C[C@@H](F)CN2)cc1` [Cpd 28], on Delta Opioid Receptor [1], the affinity, expressed as Ki, was 6.81 nM. Moreover, on Mu Opioid Receptor, the affinity corresponds to a Ki of 4670 nM. Also, at δ-opioid receptor [2], the 50% effective concentration (EC50) turned out to be 165 nM and the “GTPγS δ-opioid receptor Rel Efficacy” value stood at 0.8756.

Turning to `COc1ccc(Oc2cc(-c3ccccc3)ccc2NC[C@@H]2CCCN2)cc1` [Cpd 35, (S)-[3-(4-Methoxy-phenoxy)-biphenyl-4-yl]-pyrrolidin-2-ylmethyl-amine], the inhibition constant Ki is 28.9 nM at Delta Opioid Receptor [1] and greater than 10000 nM at Mu Opioid Receptor (read-out: μ-binding Ki). In addition, on δ-opioid receptor [2], the inhibition at 10 µM turned out to be 1%.

`COc1ccc(Oc2cc(-c3cncc(F)c3)ccc2NC[C@@H]2C[C@@H](F)CN2)cc1` [Cpd 25]: on δ-opioid receptor [4], the “GTPγS δ-RelEfficacy @200 nM” value is on record as 0.78. On δ-opioid receptor [2], a half-maximal response (EC50) required 92.4 nM and the “GTPγS δ-opioid receptor Rel Efficacy” value was determined as 1.0217.

For the compound `CCN(C[C@@H]1CCCN1)c1ccc(-c2cncnc2)cc1Oc1ccc(OC)cc1` [Cpd 51], the Ki at Delta Opioid Receptor [3] (setting [8]) amounted to 77 nM.

In the case of `COc1ccc(Oc2ccc(NC[C@@H]3CCCN3)c(Oc3ccc(OC)cc3)c2)cc1` [Cpd 53, (S)-[2,4-Bis-(4-methoxy-phenoxy)-phenyl]-pyrrolidin-2-ylmethyl-amine], the Ki on Delta Opioid Receptor [1] (setting [9]) amounted to 105 nM. The Ki at Mu Opioid Receptor (setting [6]) was greater than 10000 nM. In addition, on δ-opioid receptor [2], it took 319 nM to reach a half-maximal effect (EC50) and the inhibition at 10 µM amounted to 28.2%.

Compound `CCN(C[C@@H]1CCCN1)c1ccc(-c2cncc(C#N)c2)cc1Oc1ccc(OC)cc1` [Cpd 52] gave a Ki at Delta Opioid Receptor [3] of 9.33 nM.

For `COc1ccc(Oc2cc(-c3cncnc3)ccc2NC[C@@H]2CCCN2)cc1` [Cpd 42], the “GTPγS δ-RelEfficacy @200 nM” value at δ-opioid receptor [4] is 0.39. Besides, at Delta Opioid Receptor [3] (setting [8]), the Ki amounted to 1.39 nM.

`COc1ccc(Oc2cc(-c3cncc(C#N)c3)ccc2NC[C@@H]2C[C@@H](F)CN2)cc1` [Cpd 24, (2S,4R)-5-[4-[(4-Fluoro-pyrrolidin-2-ylmethyl)-amino]-3-(4-methoxy-phenoxy)-phenyl]-nicotinonitrile]: the “GTPγS δ-RelEfficacy @200 nM” value at δ-opioid receptor [4] was 1.01. Moreover, on δ-opioid receptor [2], the EC50 is 46.1 nM and the “GTPγS δ-opioid receptor Rel Efficacy” value is listed as 1.0158.

With `COc1ccc(Oc2cc(-c3cncc(F)c3)ccc2NC[C@@H]2CCCN2)cc1` [Cpd 43], the “GTPγS δ-RelEfficacy @200 nM” value at δ-opioid receptor [4] is 0.43. Besides, the Ki on Delta Opioid Receptor [3] came out at 0.76 nM. Besides, at δ-opioid receptor [2], the EC50 was 218 nM and the “GTPγS δ-opioid receptor Rel Efficacy” value is on record as 1.0908.

Turning to `CCN(CC)C(=O)c1ccc(NC[C@@H]2CCCN2)c(Oc2ccc(OC)cc2)c1` [Cpd 10], the Ki on Delta Opioid Receptor [1] (setting [5]) and at Mu Opioid Receptor was 936 nM each time. Also, the “# abdominal stretches (cpd)” value is given as 19 in the experiment on mice (30 mg/kg p.o.), 11 in the experiment on mice (30 mg/kg s.c.), 17.9 with mice (100 mg/kg p.o.) and 21.2 in the experiment with mice (300 mg/kg p.o.).

As for `Oc1ccc(Oc2cc(-c3cccnc3)ccc2NC[C@@H]2CCCN2)cc1` [Cpd 45, (S)-4-{5-Pyridin-3-yl-2-[(pyrrolidin-2-ylmethyl)-amino]-phenoxy}-phenol], at Delta Opioid Receptor [1], affinity was put at a Ki of 5.42 nM. The same compound gave a Ki on Mu Opioid Receptor of 4460 nM. Also, on δ-opioid receptor [2], the response was half-maximal at 40.8 nM (EC50), the “GTPγS δ-opioid receptor Rel Efficacy” value was 0.627 and the inhibition at 10 µM came out at 35.6%.

For the compound `COc1ccc(Oc2cc(-c3cncc(C#N)c3)ccc2NC[C@@H]2CCCN2)cc1` [Cpd 44], the “GTPγS δ-RelEfficacy @200 nM” value on δ-opioid receptor [4] is listed as 0.45. The Ki on Delta Opioid Receptor [3] (setting [8]) came out at 0.436 nM. For the same compound, at δ-opioid receptor [2], the “GTPγS δ-opioid receptor Rel Efficacy” value was found to be 1.1554. Also, at δ-opioid receptor [2] (setting [7]), the EC50 came out at 118 nM.

As to `CCN(C[C@@H]1CCCN1)c1ccc(-c2cncc(F)c2)cc1Oc1ccc(OC)cc1` [Cpd 50], the affinity at Delta Opioid Receptor [3], expressed as Ki, was 23 nM.

Turning to `COc1ccc(Oc2ccc(NCC3CNC3)c(Oc3ccc(OC)cc3)c2)cc1` [Cpd 58], the values for the Ki at Delta Opioid Receptor [1] (setting [9]) and on Mu Opioid Receptor (setting [6]) were 703 nM and greater than 10000 nM, respectively.

`NC(=O)c1cccc(Oc2cc(-c3ccccc3)ccc2NC[C@@H]2CCCN2)c1` [Cpd 30]: the inhibitory constant (Ki) on Delta Opioid Receptor [1] (setting [5]) is 126 nM. The compound also showed a Ki at Mu Opioid Receptor of 5800 nM. On δ-opioid receptor [2], the EC50 is 1020 nM, the “GTPγS δ-opioid receptor Rel Efficacy” value is 0.2668 and the inhibition at 10 µM was determined as 36.5%.

As for `COc1ccc(Oc2ccc(NCC3CCCNC3)c(Oc3ccc(OC)cc3)c2)cc1` (racemic) [Cpd 61], the Ki on Delta Opioid Receptor [1] (setting [9]) stood at 111 nM. The Ki on Mu Opioid Receptor (setting [6]) was greater than 10000 nM. For the same compound, at δ-opioid receptor [2], a half-maximal response (EC50) required 4070 nM and the inhibition at 10 µM came to 16.1%.

Regarding `COc1ccc(Oc2cc(-c3cncc(SC)c3)ccc2NC[C@@H]2C[C@@H](F)CN2)cc1` [Cpd 26], the “GTPγS δ-RelEfficacy @200 nM” value on δ-opioid receptor [4] was 0.7. For the same compound, on δ-opioid receptor [2], the EC50 turned out to be 187 nM and the “GTPγS δ-opioid receptor Rel Efficacy” value turned out to be 1.0716.

On to `CCN(C[C@@H]1CCCN1)c1ccc(-c2cccnc2)cc1Oc1ccc(OC)cc1` [Cpd 49, (S)-Ethyl-[2-(4-methoxy-phenoxy)-4-pyridin-3-yl-phenyl]-pyrrolidin-2-ylmethyl-amine], for which the Ki at Delta Opioid Receptor [3] (setting [8]) came out at 29 nM.
